Converted amounts (≈) assume the structure as drawn. Numbered stars: 1 amine (or outer) side, 2 acyl side, 3 side chain; on linkers, the order of the positions; unused ones are H or OH. Bridge positions count the residues as written; N and C are the ends. Square brackets hold non-standard residues; d marks the D form. Peptide text beside a SMILES is read from it. * marks the point of attachment. Orn(4R-OH,5R-OCH2CH2NMe3+) = C[N+](C)(C)CCO[C@@H](N[*:3])[C@H](O)C[C@H](N[*:1])C(=O)[*:2]; pTerphenylCO(4''-OnC5H11) = CCCCCOc1ccc(-c2ccc(-c3ccc(C(=O)*)cc3)cc2)cc1; hTyr(3S-OH,4S-OH) = N[C@H](C(=O)O)[C@H](O)[C@@H](O)c1ccc(O)cc1; Pro(3S-OH,4S-Me) = C[C@H]1CN[C@H](C(=O)O)[C@H]1O; Hyp = O=C(O)[C@@H]1C[C@@H](O)CN1
Key:
[1] = Oral bioavailability in mouse; assay type: ADME, organism-based; settings: in vivo
[2] = target: Amyloid-beta precursor protein (Homo sapiens, UniProt P05067); experiment: Inhibition of amyloid beta (1 to […] ) (unknown origin)
[3] = Ratio of drug concentration in brain to plasma in mouse at 30 mg/kg, po measured after 6 hrs; assay type: ADME, organism-based; settings: read-out: BPR
[4] = Stability in rat plasma assessed as drug degradation measured after 44 hrs; assay type: ADME, cell-free; settings: read-out: Drug degradation
[5] = Stability in dog plasma assessed as drug degradation measured after 44 hrs; assay type: ADME, cell-free, Canis lupus familiaris; settings: read-out: Drug degradation
[6] = Stability in monkey plasma assessed as drug degradation measured after 44 hrs; assay type: ADME, cell-free, Macaca mulatta; settings: rhesus monkey, read-out: Drug degradation
[7] = Stability in human plasma assessed as drug degradation measured after 44 hrs; assay type: ADME, cell-free; settings: read-out: Drug degradation
[8] = Oral bioavailability in rat; assay type: ADME, organism-based; settings: in vivo
[9] = Half-life in rat at 10 mg/kg, po; assay type: ADME, organism-based; settings: in vivo
[10] = Stability of the compound in 50% dioxane solution at 30 degreeC assessed as compound hydrolysis by measuring rate constant; assay type: physicochemical
[11] = Stability of the compound in 20% aqueous dioxane solution at 30 degreeC assessed as compound hydrolysis by measuring rate constant; assay type: physicochemical; settings: buffer
[12] = target: Sterol O-acyltransferase 1 (Homo sapiens, UniProt P35610); experiment: Inhibition of ACAT in human THP-1; assay type: cell-based
[13] = Half-life of the compound in aqueous solution at pH 6.0; assay type: physicochemical
[14] = Terminal half-life in rhesus monkey at 40 mg/kg, po; assay type: ADME, organism-based, Macaca mulatta; settings: in vivo, read-out: beta t1/2 (converted)
[15] = Tmax in rhesus monkey at 40 mg/kg, po; assay type: ADME, organism-based, Macaca mulatta; settings: in vivo
[16] = Oral bioavailability in monkey; assay type: ADME, organism-based, Macaca mulatta; settings: rhesus monkey, in vivo
[17] = Stability of the compound at pH 2 assessed as half-life; assay type: physicochemical; settings: buffer
Plasmodium falciparum = experiment: Antiplasmodial activity against Plasmodium falciparum FCB1 assessed as inhibition of parasite growth; assay type: functional, organism-based
[18] = Antiplasmodial activity against Plasmodium berghei NK 173 infected in ICR (CD-1) mouse assessed as inhibition of parasite growth administered intraperitoneally for four days; settings: NK 173, 96 h
[19] = Terminal half-life in iv dosed rat; assay type: ADME, organism-based; settings: in vivo, read-out: beta t1/2 (converted)
[20] = target: T1, Neutrophil elastase (Homo sapiens) (UniProt P08246); experiment: Time-dependent inhibition of human leukocyte elastase assessed as observed binding constant
T1 sequence (whole entry): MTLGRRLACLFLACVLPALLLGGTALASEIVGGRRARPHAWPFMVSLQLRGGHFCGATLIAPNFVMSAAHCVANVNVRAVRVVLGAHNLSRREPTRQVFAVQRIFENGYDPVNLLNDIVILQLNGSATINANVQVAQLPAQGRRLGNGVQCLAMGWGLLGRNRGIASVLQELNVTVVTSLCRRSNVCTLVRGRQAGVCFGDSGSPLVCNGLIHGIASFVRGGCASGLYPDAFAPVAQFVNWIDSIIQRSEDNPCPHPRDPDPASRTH

[21] = Terminal half-life in iv dosed rhesus monkey; assay type: ADME, organism-based, Macaca mulatta; settings: in vivo, read-out: beta t1/2 (converted)
[22] = Drug metabolism at pH 2 assessed as parent compound remaining measured after 120 mins; assay type: physicochemical; settings: read-out: Drug metabolism
Mus musculus = organism: Mus musculus; experiment: Analgesic activity in mouse assessed as protection against phenylbenzoquinone-induced writhing; assay type: functional
[23] = Clearance in rat plasma assessed as half-life; assay type: ADME, cell-free
[24] = Clearance in dog plasma assessed as half-life; assay type: ADME, cell-free, Canis lupus familiaris
[25] = target: Somatostatin receptor type 2 (Homo sapiens, UniProt P30874); experiment: Inhibition of human SSTR2
[26] = Oral bioavailability in dog; assay type: ADME, organism-based, Canis lupus familiaris; settings: in vivo
[27] = Oral bioavailability in rat relative to urinary excretion; assay type: ADME, organism-based; settings: urine
[28] = Oral bioavailability in rat relative to plasma exposure; assay type: ADME, organism-based
[29] = target: Muscarinic acetylcholine receptor M2 (Homo sapiens, UniProt P08172); experiment: Antagonist activity at muscarinic M2 receptor (unknown origin) assessed as inhibition constant
[30] = Inhibition of Leukotriene B4 production in human blood Polymorphonuclear neutrophil cells; assay type: functional, tissue-based
Homo sapiens = organism: Homo sapiens; experiment: Inhibition of Leukotriene B4 production in human whole blood; assay type: functional
[31] = target: Sodium/glucose cotransporter 2 (Homo sapiens, UniProt P31639); experiment: Inhibition of human SGLT2
[32] = Aqueous stability of the compound at pH 7 assessed as half-life; assay type: physicochemical; settings: aqueous solution
[33] = Tmax in human; assay type: ADME
[34] = Half-life in human; assay type: ADME
in vivo [35] = settings: chimpanzee, iv, 0.5 mg/kg
[36] = Clearance in Chimpanzee at 0.5 mg/kg administered as iv infusion; assay type: ADME, organism-based, Pan troglodytes; settings: in vivo
[37] = Clearance in Chimpanzee at 0.5 mg/kg, iv bolus injection; assay type: ADME, organism-based, Pan troglodytes; settings: in vivo
Candida albicans [38] = experiment: Antifungal activity against Candida albicans GS; assay type: functional, organism-based
in vivo [39] = settings: chimpanzee, iv, 0.5 mg/kg; remark: listed apart in the source
Candida albicans [40] = experiment: Fungicidal activity against Candida albicans; assay type: functional
[41] = Stability of the compound assessed as compound hydrolysis by measuring relative rate constant by titrimetric method; assay type: physicochemical
K562 = experiment: Anticancer activity against human K562 cells; assay type: functional, cell-based
HEp-2 = experiment: Anticancer activity against human HEp-2 cells; assay type: functional, cell-based
L1210 = experiment: Anticancer activity against mouse L1210 cells; assay type: functional, cell-based
CCRF-CEM = experiment: Anticancer activity against human CCRF-CEM cells; assay type: functional, cell-based
[42] = Aqueous solubility of the compound at pH 1.3 to 8; assay type: physicochemical; settings: buffer
[43] = Stability of the compound at pH 1.3 assessed as degradation half life; assay type: physicochemical; settings: buffer
[44] = Stability of the compound at pH 7.30 assessed as degradation half life; assay type: physicochemical; settings: buffer, pH 7.3

Amyloid-beta precursor protein, sequence (P05067 whole entry): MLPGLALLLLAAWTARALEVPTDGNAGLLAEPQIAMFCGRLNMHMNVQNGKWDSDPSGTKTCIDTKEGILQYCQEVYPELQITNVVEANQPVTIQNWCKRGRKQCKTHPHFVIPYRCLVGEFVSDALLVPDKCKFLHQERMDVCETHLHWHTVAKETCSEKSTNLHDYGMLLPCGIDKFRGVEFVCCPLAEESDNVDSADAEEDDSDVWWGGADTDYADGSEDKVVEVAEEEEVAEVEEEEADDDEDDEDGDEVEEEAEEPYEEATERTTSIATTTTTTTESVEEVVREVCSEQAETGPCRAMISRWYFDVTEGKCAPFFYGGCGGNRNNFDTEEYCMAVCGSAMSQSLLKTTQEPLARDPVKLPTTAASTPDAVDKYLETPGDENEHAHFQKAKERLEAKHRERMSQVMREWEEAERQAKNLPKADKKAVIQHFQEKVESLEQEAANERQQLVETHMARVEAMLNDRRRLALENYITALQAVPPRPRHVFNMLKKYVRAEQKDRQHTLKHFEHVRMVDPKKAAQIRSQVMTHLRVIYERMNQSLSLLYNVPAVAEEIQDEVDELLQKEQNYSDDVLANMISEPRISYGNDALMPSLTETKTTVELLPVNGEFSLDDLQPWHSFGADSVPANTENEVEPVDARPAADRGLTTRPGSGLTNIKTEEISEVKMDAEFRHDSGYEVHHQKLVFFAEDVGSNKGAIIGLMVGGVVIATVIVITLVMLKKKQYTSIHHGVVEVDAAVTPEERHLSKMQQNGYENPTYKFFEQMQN
Muscarinic acetylcholine receptor M2, sequence (P08172 whole entry): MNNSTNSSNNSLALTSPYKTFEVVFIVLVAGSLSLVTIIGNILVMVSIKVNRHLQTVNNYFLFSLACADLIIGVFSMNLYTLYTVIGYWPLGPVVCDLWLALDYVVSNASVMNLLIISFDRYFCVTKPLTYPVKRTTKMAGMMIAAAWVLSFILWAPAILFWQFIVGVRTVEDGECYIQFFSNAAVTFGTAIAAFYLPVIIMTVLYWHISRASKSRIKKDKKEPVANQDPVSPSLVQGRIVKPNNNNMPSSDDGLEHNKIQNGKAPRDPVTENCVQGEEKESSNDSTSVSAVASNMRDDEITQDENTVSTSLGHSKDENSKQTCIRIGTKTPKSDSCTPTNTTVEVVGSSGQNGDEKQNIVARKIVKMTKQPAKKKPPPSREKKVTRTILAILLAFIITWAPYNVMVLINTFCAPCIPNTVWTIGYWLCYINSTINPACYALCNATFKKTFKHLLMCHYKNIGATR
Somatostatin receptor type 2, sequence (P30874 whole entry): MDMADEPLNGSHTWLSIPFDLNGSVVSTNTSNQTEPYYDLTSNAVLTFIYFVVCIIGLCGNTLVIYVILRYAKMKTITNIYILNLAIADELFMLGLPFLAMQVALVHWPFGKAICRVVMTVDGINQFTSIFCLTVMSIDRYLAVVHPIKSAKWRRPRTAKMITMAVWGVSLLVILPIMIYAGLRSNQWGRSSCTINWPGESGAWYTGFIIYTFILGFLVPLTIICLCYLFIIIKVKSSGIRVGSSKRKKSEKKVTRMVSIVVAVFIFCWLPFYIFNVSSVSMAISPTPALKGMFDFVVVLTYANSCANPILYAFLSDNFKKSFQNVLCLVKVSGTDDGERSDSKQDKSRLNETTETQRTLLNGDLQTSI
Sterol O-acyltransferase 1, sequence (P35610 whole entry): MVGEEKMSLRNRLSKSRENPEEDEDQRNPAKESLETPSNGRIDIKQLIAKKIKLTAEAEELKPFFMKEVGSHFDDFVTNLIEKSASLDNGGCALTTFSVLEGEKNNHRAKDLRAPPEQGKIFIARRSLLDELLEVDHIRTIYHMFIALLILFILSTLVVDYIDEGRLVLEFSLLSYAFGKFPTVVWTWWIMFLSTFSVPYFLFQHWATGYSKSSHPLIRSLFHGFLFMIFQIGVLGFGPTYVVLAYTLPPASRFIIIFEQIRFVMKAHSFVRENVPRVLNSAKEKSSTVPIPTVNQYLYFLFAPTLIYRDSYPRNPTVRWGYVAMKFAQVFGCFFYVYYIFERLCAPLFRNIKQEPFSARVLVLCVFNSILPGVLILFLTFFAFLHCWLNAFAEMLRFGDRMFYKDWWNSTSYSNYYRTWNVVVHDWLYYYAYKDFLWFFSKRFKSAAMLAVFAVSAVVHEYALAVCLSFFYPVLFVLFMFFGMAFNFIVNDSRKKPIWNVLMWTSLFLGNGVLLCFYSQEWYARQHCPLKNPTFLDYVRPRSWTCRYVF
Sodium/glucose cotransporter 2, sequence (P31639 whole entry): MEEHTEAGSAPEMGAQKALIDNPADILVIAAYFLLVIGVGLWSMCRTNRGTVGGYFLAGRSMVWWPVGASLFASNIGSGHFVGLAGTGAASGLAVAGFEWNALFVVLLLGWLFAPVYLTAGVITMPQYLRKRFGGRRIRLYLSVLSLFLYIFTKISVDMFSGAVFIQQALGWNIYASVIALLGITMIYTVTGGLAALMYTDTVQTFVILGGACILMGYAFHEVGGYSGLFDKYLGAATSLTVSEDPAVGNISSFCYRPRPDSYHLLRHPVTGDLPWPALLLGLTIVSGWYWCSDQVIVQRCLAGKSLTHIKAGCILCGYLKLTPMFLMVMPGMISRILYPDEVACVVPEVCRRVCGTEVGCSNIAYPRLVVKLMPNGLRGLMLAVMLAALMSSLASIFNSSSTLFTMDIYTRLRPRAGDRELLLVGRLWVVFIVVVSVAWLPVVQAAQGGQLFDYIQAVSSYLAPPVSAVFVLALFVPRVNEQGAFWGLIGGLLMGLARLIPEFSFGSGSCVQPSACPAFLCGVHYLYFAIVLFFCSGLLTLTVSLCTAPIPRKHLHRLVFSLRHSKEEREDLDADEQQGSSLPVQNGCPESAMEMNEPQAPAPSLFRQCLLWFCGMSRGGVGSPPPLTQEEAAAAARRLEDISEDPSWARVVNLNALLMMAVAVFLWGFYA

CCC(=O)O[C@@H]([C@H]1C[C@@H](C)[C@H]2[C@H](O1)[C@H](O)[C@@]1(C)[C@@H]3CC[C@H]4C(C)(C)[C@@H](O[C@H]5CN(C6CN(C)C6)CCO5)CC[C@@]45C[C@@]35CC[C@]21C)C(C)(C)O
bioavailability [1]: 45% | IC50 [2]: 100 nM | Kp at 6 h [3]: 0.55

CCCCCOc1ccc(-c2ccc(-c3ccc(C(=O)N[C@H]4C[C@@H](O)[C@@H](OCC[N+](C)(C)C)NC(=O)[C@@H]5[C@@H](O)[C@@H](C)CN5C(=O)[C@H]([C@@H](C)O)NC(=O)[C@H]([C@H](O)[C@@H](O)c5ccc(O)cc5)NC(=O)[C@@H]5C[C@@H](O)CN5C(=O)[C@H]([C@@H](C)O)NC4=O)cc3)cc2)cc1 [REZAFUNGIN] ({pTerphenylCO(4''-OnC5H11)}-[Orn(4R-OH,5R-OCH2CH2NMe3+)]T[Hyp][hTyr(3S-OH,4S-OH)]T[Pro(3S-OH,4S-Me)]; lactam 1-C)
metabolised at 44 h [4]: 9% | metabolised at 44 h [5]: 21% | metabolised at 44 h [6]: 6% | metabolised at 44 h [7]: 7%

CN1CCN(C2CCN(C(=O)CC3CCC4(CC3)OOC3(OO4)C4CC5CC(C4)CC3C5)CC2)CC1 (stereo unspecified)
bioavailability [1]: 42% | bioavailability [8]: 38% | half-life [9]: 2.4 h

COc1ccc(C2(c3ccc(OC)cc3)OCCO2)cc1
K [10]: 1.2 10^-1/M/s | K [11]: 8.5 10^-1/M/s

Cc1cc(C)n(CCCC[C@H]2CO[C@H](c3nc(-c4ccccc4)c(-c4ccccc4)[nH]3)OC2)n1
IC50 [12]: > 500 nM

CO[C@@]1(NC(=O)CCC[C@@H](N)C(=O)O)C(=O)N2C(C(=O)O)=C(COC(N)=O)CS[C@@H]21
half-life [13]: 459 h

CCC[C@@H](NC(=O)N1C(=O)C(CC)(CC)[C@@H]1Oc1ccc(C(=O)N2CCN(C)CC2)cc1)c1ccc2c(c1)OCO2
half-life [14]: 6 h | Tmax [15]: 8 h | bioavailability [16]: 39% | bioavailability [8]: 65%

CO[C@H]1O[C@@H]2O[C@@]3(C)CC[C@H]4[C@H](C)CC[C@@H]([C@H]1C)[C@@]24OO3
half-life [17]: 11 h | IC50 (Plasmodium falciparum): 3.5 nM | ED50 [18]: 8.4 µmol/kg

CCC[C@@H](NC(=O)N1C(=O)C(CC)(CC)[C@@H]1Oc1ccc(CC(=O)O)cc1)c1ccc(C)cc1
half-life [19]: 2.3 h | K [20]: 6.2 10^5/M/s | half-life [14]: 6 h | half-life [21]: 5.8 h | bioavailability [16]: 23% | bioavailability [8]: 100%

c1ccc([C@]23OC[C@H](CCn4c2nc2ccccc24)O3)cc1
remaining at 2 h [22]: 93.5% | ED50 (Mus musculus): 30 mg/kg

CCOc1ccc(Cc2cc([C@]34OC[C@](CO)(O3)[C@@H](O)[C@H](O)[C@H]4O)ccc2Cl)cc1 [ERTUGLIFLOZIN]
half-life [23]: 4.1 h | half-life [24]: 7.6 h

C[C@@H](c1c[nH]c2ccccc12)[C@H](C(=O)N[C@@H](CCCCN)C(=O)OC(C)(C)C)N1CCN(CCCc2ccccc2)C1=O
Ki [25]: 3.6 nM | bioavailability [26]: 5%

Nc1ccn([C@@H]2CO[C@H](CO)O2)c(=O)n1 [TROXACITABINE]
bioavailability [27]: 41% | bioavailability [28]: 37%

CCCS(=O)(=O)N1CCC(N2CCC(C3(c4ccc(S(=O)(=O)c5ccc6c(c5)OCO6)cc4)CCCO3)CC2)CC1 (stereo unspecified)
Ki [29]: 5 nM

O=C1OCc2c1cc1cc(OCc3cccc(C4(O)CC5COC(C4)O5)c3)ccc1c2-c1ccoc1 (stereo unspecified)
IC50 [30]: 7 nM | IC50 (Homo sapiens): 180 nM

CCOc1ccc(Cc2cc([C@]34CO[C@](CO)(O3)[C@@H](O)[C@H](O)[C@H]4O)ccc2Cl)cc1
IC50 [31]: 714 nM

CC1(C)S[C@@H]2[C@H](NC(=O)[C@H](N)c3ccccc3)C(=O)N2[C@H]1C(=O)O [AMPICILLIN]
half-life [32]: 0.25 h

CN1CCN(C(=O)O[C@H]2c3nccnc3C(=O)N2c2ccc(Cl)cn2)CC1 [ESZOPICLONE]
Tmax [33]: 1 h | half-life [34]: 5 h

CC[C@H](C)C[C@H](C)CCCCCCCCC(=O)N[C@H]1C[C@@H](O)[C@@H](OCCN)NC(=O)[C@@H]2[C@@H](O)CCN2C(=O)[C@H]([C@H](O)CCN)NC(=O)[C@H]([C@H](O)[C@@H](O)c2ccc(O)cc2)NC(=O)[C@@H]2C[C@@H](O)CN2C(=O)[C@H]([C@@H](C)O)NC1=O
half-life (in vivo [35]): 2.8 h | clearance [36]: 0.56 mL/min/kg | clearance [37]: 0.58 mL/min/kg | IC50 (Candida albicans [38]): 1 nM | half-life (in vivo [39]): 2.6 h | MFC (Candida albicans [40]): < 0.06 µg/mL

CC1(C)OCCO1
K [41]: 5.4 10^4No_unit

Nc1nc(F)nc2c1ncn2[C@@H]1O[C@H](COP(=O)(O)O)[C@@H](O)[C@@H]1O [FLUDARABINE PHOSPHATE]
IC50 (K562): 150 nM | IC50 (HEp-2): 9000 nM | IC50 (L1210): 3000 nM | IC50 (CCRF-CEM): 400 nM

COc1cc([C@@H]2c3cc4c(cc3[C@@H](O[C@@H]3O[C@@H]5CO[C@@H](C)O[C@H]5[C@H](O)[C@H]3O)[C@H]3COC(=O)[C@H]23)OCO4)cc(OC)c1O [ETOPOSIDE]
solubility [42]: 116 µg/mL (≈ 197 µM) | half-life [43]: 2.88 h | half-life [44]: 27.7 h

Reference: ChEMBL document CHEMBL5244275, “Geminal Diheteroatomic Motifs: Some Applications of Acetals, Ketals, and Their Sulfur and Nitrogen Homologues in Medicinal Chemistry and Drug Design” (J Med Chem, 2021)
